ChEMBL document CHEMBL1201862, “PubChem BioAssay data set” (2004)
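Assay format: 96-well plates, 48-hour exposure. Abbreviation: GI50, concentration required for 50% inhibition of growth.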 The source made the active and inactive calls. Cut-off read from the data, not from the text of the source: active = GI50 up to about 1.1 µM and inactive = higher.

Tests used:
Assay in all cases: DTP human tumour cell line panel, 48 h
SF-295 = test system: SF-295
MDA-N = test system: MDA-N
SK-MEL-5 = test system: SK-MEL-5
ACHN = test system: ACHN
SK-MEL-2 = test system: SK-MEL-2
M14 = test system: M14
HCT-15 = test system: HCT-15
OVCAR-8 = test system: OVCAR-8
786-0 = test system: 786-0
LOX IMVI = test system: LOX IMVI
TK-10 = test system: TK-10
HT-29 = test system: HT-29
MOLT-4 = test system: MOLT-4
SNB-19 = test system: SNB-19
U-251 = test system: U-251
SK-MEL-28 = test system: SK-MEL-28
OVCAR-3 = test system: OVCAR-3
SK-OV-3 = test system: SK-OV-3
DU-145 = test system: DU-145
RXF 393 = test system: RXF 393
SF-268 = test system: SF-268
MDA-MB-231 = test system: MDA-MB-231
PC-3 = test system: PC-3
COLO 205 = test system: COLO 205
OVCAR-4 = test system: OVCAR-4
UACC-257 = test system: UACC-257
HCT-116 = test system: HCT-116
OVCAR-5 = test system: OVCAR-5
NCI-H522 = test system: NCI-H522
NCI-H226 = test system: NCI-H226
HCC 2998 = test system: HCC 2998
MDA-MB-435 = test system: MDA-MB-435
HOP-62 = test system: HOP-62
T47D = test system: T47D
CAKI-1 = test system: CAKI-1
IGROV-1 = test system: IGROV-1
A549 = test system: A549
EKVX = test system: EKVX
A498 = test system: A498
CCRF-CEM = test system: CCRF-CEM
UO-31 = test system: UO-31
HL-60 = test system: HL-60
HOP-92 = test system: HOP-92
KM12 = test system: KM12
K562 = test system: K562
UACC-62 = test system: UACC-62
SN12C = test system: SN12C
NCI/ADR-RES = test system: NCI/ADR-RES
NCI-H23 = test system: NCI-H23
MCF7 = test system: MCF7
Malme-3M = test system: Malme-3M
RPMI-8226 = test system: RPMI-8226
SF-539 = test system: SF-539
SR = test system: SR
SW-620 = test system: SW-620
BT-549 = test system: BT-549
SNB-75 = test system: SNB-75
NCI-H460 = test system: NCI-H460

CCOC(=O)c1sc2nc(SC)nc(Nc3ccc4c(c3)OCCCO4)c2c1N
GI50 (SF-295): 8.95 µM (inactive) | GI50 (MDA-N): 20.5 µM (inactive) | GI50 (SK-MEL-5): 3.29 µM (inactive) | GI50 (ACHN): 26.9 µM (inactive) | GI50 (SK-MEL-2): 62.5 µM (inactive) | GI50 (M14): 17.3 µM (inactive) | GI50 (HCT-15): 10.9 µM | GI50 (OVCAR-8): 11.4 µM (inactive) | GI50 (786-0): 19.3 µM (inactive) | GI50 (LOX IMVI): 34.8 µM (inactive) | GI50 (TK-10): 40.6 µM (inactive) | GI50 (HT-29): 32.8 µM (inactive) | GI50 (MOLT-4): 2.55 µM (inactive) | GI50 (SNB-19): > 100 µM (inactive) | GI50 (U-251): 46.5 µM (inactive) | GI50 (SK-MEL-28): > 100 µM (inactive) | GI50 (OVCAR-3): 16.5 µM (inactive) | GI50 (SK-OV-3): 55.6 µM (inactive) | GI50 (DU-145): 31.8 µM (inactive) | GI50 (RXF 393): 11.8 µM (inactive) | GI50 (SF-268): 20.8 µM (inactive) | GI50 (MDA-MB-231): 33 µM (inactive) | GI50 (PC-3): 20 µM (inactive) | GI50 (COLO 205): 41.5 µM (inactive) | GI50 (OVCAR-4): 5.47 µM (inactive) | GI50 (UACC-257): 7.82 µM (inactive) | GI50 (HCT-116): 67.1 µM (inactive) | GI50 (OVCAR-5): > 100 µM (inactive) | GI50 (NCI-H522): 3.3 µM (inactive) | GI50 (NCI-H226): 42.2 µM (inactive) | GI50 (HCC 2998): 25.2 µM (inactive) | GI50 (MDA-MB-435): 11.1 µM (inactive) | GI50 (HOP-62): 20.1 µM (inactive) | GI50 (T47D): 2.14 µM (inactive) | GI50 (CAKI-1): > 100 µM (inactive) | GI50 (IGROV-1): > 100 µM (inactive) | GI50 (A549): 8.47 µM (inactive) | GI50 (EKVX): 10.6 µM (inactive) | GI50 (A498): 26.7 µM (inactive) | GI50 (CCRF-CEM): 4.66 µM (inactive) | GI50 (UO-31): 85.1 µM (inactive) | GI50 (HL-60): > 100 µM (inactive) | GI50 (HOP-92): 61.1 µM (inactive) | GI50 (KM12): 24.2 µM (inactive) | GI50 (K562): 9.04 µM (inactive) | GI50 (UACC-62): 9.84 µM (inactive) | GI50 (SN12C): > 100 µM (inactive) | GI50 (NCI/ADR-RES): 8.93 µM (inactive) | GI50 (NCI-H23): 5.92 µM (inactive) | GI50 (MCF7): 7.71 µM (inactive) | GI50 (Malme-3M): 16.7 µM (inactive) | GI50 (RPMI-8226): 4.25 µM (inactive) | GI50 (SF-539): 14.3 µM (inactive) | GI50 (SR): 16.7 µM (inactive) | GI50 (SW-620): 17.5 µM (inactive) | GI50 (BT-549): 17.5 µM (inactive)

C=C1c2nc3ccccc3n2C=C(c2ccc(Cl)cc2)N1c1ccccc1
GI50 (SF-295): 11.7 µM (inactive) | GI50 (MDA-N): 33.1 µM (inactive) | GI50 (SK-MEL-5): 16.1 µM (inactive) | GI50 (SNB-75): 3.5 µM (inactive) | GI50 (ACHN): 12.3 µM (inactive) | GI50 (SK-MEL-2): 22.5 µM (inactive) | GI50 (M14): 16.3 µM (inactive) | GI50 (HCT-15): 12.1 µM | GI50 (OVCAR-8): 9.51 µM (inactive) | GI50 (786-0): 13.3 µM (inactive) | GI50 (LOX IMVI): 33.7 µM (inactive) | GI50 (TK-10): 12.4 µM (inactive) | GI50 (MOLT-4): > 100 µM (inactive) | GI50 (SNB-19): 6.56 µM (inactive) | GI50 (U-251): 18.7 µM (inactive) | GI50 (SK-MEL-28): 11.7 µM (inactive) | GI50 (OVCAR-3): 17.2 µM (inactive) | GI50 (SK-OV-3): 16.9 µM (inactive) | GI50 (DU-145): 32.5 µM (inactive) | GI50 (RXF 393): 16.1 µM (inactive) | GI50 (MDA-MB-231): 27.2 µM (inactive) | GI50 (PC-3): 26.4 µM (inactive) | GI50 (COLO 205): 29.6 µM (inactive) | GI50 (OVCAR-4): 10.5 µM (inactive) | GI50 (UACC-257): 18.7 µM (inactive) | GI50 (HCT-116): 14 µM (inactive) | GI50 (NCI-H460): 12.4 µM (inactive) | GI50 (OVCAR-5): 26.5 µM (inactive) | GI50 (NCI-H522): 4 µM (inactive) | GI50 (NCI-H226): 0.031 µM (active) | GI50 (HCC 2998): 13.3 µM (inactive) | GI50 (MDA-MB-435): 21 µM (inactive) | GI50 (CAKI-1): 15.7 µM (inactive) | GI50 (IGROV-1): 7.73 µM (inactive) | GI50 (A549): 14.1 µM (inactive) | GI50 (EKVX): 14.8 µM (inactive) | GI50 (A498): 37.2 µM (inactive) | GI50 (CCRF-CEM): > 100 µM (inactive) | GI50 (UO-31): 13.4 µM (inactive) | GI50 (HL-60): 41.1 µM (inactive) | GI50 (HOP-92): 20.7 µM (inactive) | GI50 (KM12): 12.3 µM (inactive) | GI50 (K562): 40.6 µM (inactive) | GI50 (UACC-62): 18.3 µM (inactive) | GI50 (SN12C): 39.9 µM (inactive) | GI50 (NCI/ADR-RES): 12.2 µM (inactive) | GI50 (NCI-H23): 11.7 µM (inactive) | GI50 (MCF7): 13 µM (inactive) | GI50 (Malme-3M): 12.1 µM (inactive) | GI50 (RPMI-8226): 28 µM (inactive) | GI50 (SF-539): 13.2 µM (inactive) | GI50 (SR): 5.94 µM (inactive) | GI50 (SW-620): 25.3 µM (inactive) | GI50 (BT-549): 6.64 µM (inactive)
